Structures are written as SMILES.

Data set [1] in a line: Assay C: metabolic stability in human liver microsomes (Human MST). The format is in vitro ADME. The following applies: pH 7.6, pooled human liver microsomes, 37° C., read-out: Assay C: Human MST t1/2. On the procedure: C. Assessment of Metabolic Stability in Human Liver Microsomes (Human MST)
The metabolic stability of the compounds according to the invention may be investigated as follows:
The metabolic degradation of the test compound is assayed at 37° C. with pooled human liver microsomes. The final incubation volume of 100 μL per time point contains TRIS buffer pH 7.6 at room temperature (0.1 M), MgCl2 (5 mM), microsomal protein (1 mg/mL) and the test compound at a final concentration of 1 μM. Following a short pre-incubation period at 37° C., the reactions are initiated by addition of beta-nicotinamide adenine dinucleotide phosphate, reduced form (NADPH, 1 mM), and terminated by transferring an aliquot into solvent after different time points. After centrifugation (10000 g, 5 min), an aliquot of the supernatant is assayed by LC-MS/MS for the amount of parent compound. The half-life (t1/2) is determined by the slope of the semi-logarithmic plot of the concentration-time profile.

A further data set has as its target T1, human orexin 2 receptor (Homo sapiens, UniProt O43614).
T1 construct: stably expressing the full-length human orexin 2 receptor; expressed in transfected cells; host or cells: CHO-K1 (CHO-K1/hOx2), co-expressing aequorin
T1 sequence (O43614 1-444): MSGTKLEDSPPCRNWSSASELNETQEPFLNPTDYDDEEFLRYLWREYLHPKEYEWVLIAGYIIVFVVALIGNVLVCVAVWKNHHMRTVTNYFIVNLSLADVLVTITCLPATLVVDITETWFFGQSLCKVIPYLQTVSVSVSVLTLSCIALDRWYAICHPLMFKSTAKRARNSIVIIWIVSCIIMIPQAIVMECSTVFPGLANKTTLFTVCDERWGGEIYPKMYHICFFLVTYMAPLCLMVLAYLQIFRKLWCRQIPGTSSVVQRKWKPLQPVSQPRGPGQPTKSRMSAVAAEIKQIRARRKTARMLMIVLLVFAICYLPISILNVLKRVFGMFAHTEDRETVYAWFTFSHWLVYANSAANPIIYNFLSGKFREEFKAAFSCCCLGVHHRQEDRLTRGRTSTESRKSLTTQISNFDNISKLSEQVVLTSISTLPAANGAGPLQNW
The experiment in a line: Assay B: in vitro testing of OX2R potency, OX2R IP1. It counts as cell-based. Particulars: 0.5 nM Orexin A concentration. An excerpt:
Activation of the orexin receptors expressed in cell lines results in an increase in intracellular IP3 concentration. IP1, a downstream metabolite of IP3, accumulates in cells following receptor activation and is stable in the presence of LiCl. Using Homogeneous Time-Resolved Fluorescence technology with Lumi4-Tb cryptate (commercially available from Cisbio Bioassay.) and a suitable fluorescence plate reader. This functional response is detectable and quantifiable as described in Trinquet et al. Anal. Biochem. 2006, 358, 126-135, Degorce et al. Curr. Chem. Genomics 2009, 3, 22-32. This technique is used to characterize pharmacological modification of the orexin receptors.
B. In Vitro Testing of OX2R Potency: OX2R IP1
IP1 measurements are performed in CHO-K1 cells stably expressing the full-length human orexin 2 receptor and the aequorin photoprotein. Cells are cultivated in Ham's nutrient mixture F12 medium with 10% fetal calf serum, in a 37° C., 95% humidity and 5% CO2 incubator. The CHO-K1/hOx2 cell mass is expanded to larger cell numbers. The cells are obtained as frozen cells in cryo-vials and stored until use at −150° C. The viability of the cells after thawing is >90%. In preparation for the assay, 24 hours before the assay, the cells are thawed at 37° C. and immediately diluted with cell culture medium. After centrifugation, the cell pellet is resuspended in medium and then distributed into the assay plates with a density of 5000 cells/25 μper well. The plates are incubated for one hour at room temperature to reduce edge effects before they are incubated for 24 hours at 37° C./5% CO2. Compounds are prepared by a 8-point serial dilution in DMSO and a final dilution step into assay buffer (HBSS with 20 mM HEPES, 0.1% BSA and 50 mM LiCl, pH 7.4) to ensure a final DMSO concentration of 1% in the assay. On the day of the assay, cells in the plate are washed twice with 60 μL assay buffer (20 μL buffer remained in the wells after washing), followed by adding 5 μL per well of compounds diluted in assay buffer. After 15 minutes of incubation at room temperature 5 μL per well of Orexin A peptide (final concentration: 0.5 nM) dissolved in assay buffer is added to the assay plate. The assay plate is incubated for 60 minutes at 37° C. Then 5 μl per well of Anti-IP1-Cryptate Tb solution and 5 μl per well of IP1-d2 dilution are added to all well of the plate and the plate is incubated for a further 60 minutes light protected at room temperature. The emission at 615 nm and 665 nm (Excitation wavelength: 320 nm) are measured using an EnVision reader (PerkinElmer). The ratio between the emission at 665 nm and 615 is calculated by the reader.
8-point four parametric non-linear curve fitting and determination of IC50 values and Hill slopes is performed using a regular analysis software e.g. AssayExplorer (Accelrys). In order to establish an agonist concentration independent parameter, Kb values are calculated using the following equation: IC50/((2+(A/EC50)^n)^1/n−1) (with A=concentration agonist, EC50=EC50 agonist, n=Hill slope agonist) (see P. Leff, I. G. Dougall, Trends Pharmacol. Sci. 1993, 14(4),110-112).

For the molecule `C[C@@H](CNc1ncc(C(F)(F)F)cn1)N(CC(F)F)C(=O)c1cc(F)cc(F)c1-n1nccn1` [Example 1], in data set [1], the half-life at 1 μM is > 2.17 h. The Kb at human orexin 2 receptor turned out to be 251 nM.

Regarding `C[C@@H](CNc1ncc(C(F)(F)F)cn1)N(CC(F)F)C(=O)c1cccc(F)c1-n1nccn1` [Example 2], in data set [1], the half-life at 1 μM was > 2.17 h. Besides, the Kb on human orexin 2 receptor stood at 87.1 nM.

Consider `C[C@@H](CNc1ncc(C(F)(F)F)cn1)N(CC(F)F)C(=O)c1cccc(F)c1-c1ncccn1` [Example 3], for which the half-life at 1 μM in data set [1] was > 2.17 h. The molecule also displayed a Kb on human orexin 2 receptor of 108 nM.

Take `C[C@@H](CNc1ncc(C(F)(F)F)cn1)N(CC(F)F)C(=O)c1cc(F)ccc1-c1ncccn1` [Example 4]: in data set [1], the half-life at 1 μM was > 2.17 h. The Kb at human orexin 2 receptor came out at 70.8 nM.

With `C[C@@H](CNc1ncc(C(F)(F)F)cn1)N(CC(F)F)C(=O)c1c(F)cccc1-c1ncccn1` [Example 5], in data set [1], the half-life at 1 μM is > 2.17 h. Besides, at human orexin 2 receptor, the Kb is 143 nM.

The values are drawn from patent publication US11324724B2, “N-(2,2-difluoroethyl)-N-[(pyrimidinylamino)propanyl]arylcarboxamides” (Boehringer Ingelheim International GmbH, priority 2017, dated 2022).
